Patent US20240415819A1, “MACROCYCLIC COMPOUNDS AS PROTEASOME SUBUNIT BETA TYPE-5 INHIBITORS” (Lead Discovery Center GmbH, priority 2021, published 2024)

Legend:
[1] = target: T1, β5 subunit of the human constitutive proteasome (CPS) (Homo sapiens, UniProt P28074); experiment: β5 inhibition assay, human constitutive proteasome (Suc-LLVY-AMC); assay type: biochemical; details: IC50 class, Suc-LLVY-AMC substrate
T1 construct: purchased Boston Biochem E-360
Method: The enzymatic activity of the β5 subunit of the human constitutive proteasome (CPS) is analyzed. In another assay, which differs from the assay of the human constitutive proteasome only in using the human immunoproteasome (IPS) the enzymatic activity of the β5 subunit of the human immunoproteasome (IPS) is analyzed. […] Inhibition is indicated as IC50 [nM] (“-”=not measured).

[2] = target: T2, β5 subunit of the human immunoproteasome (IPS) (Homo sapiens, UniProt P28062); experiment: β5 inhibition assay, human immunoproteasome (Suc-LLVY-AMC); assay type: biochemical; details: IC50 class, Suc-LLVY-AMC substrate
T2 construct: purchased Boston Biochem E-370
Procedure, shortened: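 β5 activity is read as liberated AMC fluorescence (355/460 nm) after 4 h dark reaction at RT with 22.6 μM Suc-LLVY-AMC, stopped by 1 μM bortezomib. Beforehand, 1 nM human IPS and compound sat 10 min at RT in HEPES pH 7.5 buffer containing NaCl, 0.02% SDS and DTT.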

[3] = system: A549 (human lung carcinoma cell line); experiment: Glo assay of A549 cells (Table 3; ProteasomeGlo plating scheme); assay type: cell-based; details: Homo sapiens; A549 cells; read-out: PGLo A549
Procedure, shortened: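 Luminescent read-out of cellular chymotrypsin-like proteasome activity: cells exposed to compound 105 min at 37° C., 5% CO2, then given Suc-LLVY-Glo reagent, shaken 2-5 min and kept dark 10-15 min before reading. Values are IC50 [nM].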

[4] = system: Hs 746T (human gastric carcinoma cell line); experiment: 48 hr CTG viability assay, Hs 746T; assay type: cell-based; details: Hs746T, 48 hr CTG, read-out: Hs 746T IC50
Method: (§1) A viability assay was conducted for 48 hours to evaluate the inhibition of cancer cell growth by proteasome inhibitors. Briefly, the candidate cell line was plated with a 96-well plate following density of cells, respectively. 6×10^3 Cells/well for A2780 (human ovarian cancer cell line) and MDA-MB-468 (breast carcinoma), 8×10^3 Cells/well for Hs746T (human gastric carcinoma cell line), 1.1×10^4 Cells/well for MM1 S and RPMI 8226 (multiple myeloma). After 24 hours, the cells were treated with various concentrations of the compound (ranging from 0.0015 uM to 10 uM). […] After 48 hours of incubation at 37° C., 5% CO2 incubator, cells were analyzed for viability using the CellTiter-Glo Luminescent Cell Viability assay (Promega, Cat #G7570). All viability assays were performed in duplicate and Luminescence was read using an Envision (Perkin Elmer, USA). Data were analyzed using XLfit software. […] (human gastric carcinoma cell line), MM1 S (B lymphoblast cell line), and RPMI 8226 (B lymphocyte cell line, multiple myeloma). Inhibition is indicated as IC50 [nM] (“-”=not measured).

[5] = system: MM1 S (B lymphoblast cell line); experiment: 48 hr CTG viability assay, MM1S; assay type: cell-based; details: Homo sapiens, 48 hr CTG, read-out: MM1S IC50
Method: as §1

[6] = system: RPMI 8226 (B lymphocyte cell line, multiple myeloma); experiment: 48 hr CTG viability assay, RPMI 8226; assay type: cell-based; details: Homo sapiens, RPMI-8226; 48 hr CTG; read-out: RPMI-8226 IC50
Method: as §1

IC50 [1] [nM]	IC50 [2] [nM]	IC50 [3] [nM]	IC50 [4] [nM]	IC50 [5] [nM]	IC50 [6] [nM]	Compound
< 100	< 100	< 100	100 to 500	100 to 500	100 to 500	Cc1ccc2cc1CNC(=O)[C@H](CCc1ccccc1)NC(=O)[C@@H](NC(=O)CCOC1CC3(CNC3)C1)CC(=O)N1CCCC(CCO2)C1 (stereo partly drawn) [Compound 725, 3-((2-azaspiro[3.3]heptan-6-yl)oxy)-N-((9S,12S)-5^4-methyl-8,11,14-trioxo-9-phenethyl-4-oxa-7,10-diaza-1(3,1)-piperidina-5(1,3)-benzenacyclotetradecaphane-12-yl)propanamide]
< 100	< 100	100 to 500	< 100	< 100	< 100	Cc1ccc2cc1CNC(=O)[C@H](CCc1ccccc1)NC(=O)[C@@H](NC(=O)CCNCC1CCCC1)CC(=O)N1CCCC(CCO2)C1 (stereo partly drawn) [Compound 677, 3-((cyclopentylmethyl)amino)-N-((9S,12S)-5^4-methyl-8,11,14-trioxo-9-phenethyl-4-oxa-7,10-diaza-1(3,1)-piperidina-5(1,3)-benzenacyclotetradecaphane-12-yl)propanamide]
< 100	< 100	< 100	< 100	< 100	< 100	Cc1ccc2cc1CNC(=O)[C@H](CCc1ccccc1)NC(=O)[C@@H](NC(=O)CCNC(=O)C1CC3CCC1O3)CC(=O)N1CCCC(CCO2)C1 (stereo partly drawn) [Compound 701, N-(3-(((9S,12S)-5^4-methyl-8,11,14-trioxo-9-phenethyl-4-oxa-7,10-diaza-1(3,1)-piperidina-5(1,3)-benzenacyclotetradecaphane-12-yl)amino)-3-oxopropyl)-7-oxabicyclo[2.2.1]heptane-2-carboxamide]
< 100	< 100	< 100	< 100	< 100	< 100	Cc1ccc2cc1CNC(=O)[C@H](CCc1ccccc1)NC(=O)[C@@H](NC(=O)CCNC1CCC1)CC(=O)N1CCCC(CCO2)C1 (stereo partly drawn) [Compound 680, 3-(cyclobutylamino)-N-((9S,12S)-5^4-methyl-8,11,14-trioxo-9-phenethyl-4-oxa-7,10-diaza-1(3,1)-piperidina-5(1,3)-benzenacyclotetradecaphane-12-yl)propanamide]
< 100	< 100	< 100	< 100	< 100	< 100	COc1ccccc1CCCOCCC(=O)N[C@H]1CC(=O)N2CCCC(CCOc3ccc(C)c(c3)CNC(=O)[C@H](CCc3ccccc3)NC1=O)C2 (stereo partly drawn) [Compound 637, 3-(3-(2-methoxyphenyl)propoxy)-N-((9S,12S)-5^4-methyl-8,11,14-trioxo-9-phenethyl-4-oxa-7,10-diaza-1(3,1)-piperidina-5(1,3)-benzenacyclotetradecaphane-12-yl)propanamide]
< 100	< 100	< 100	100 to 500	< 100	< 100	Cc1ccc2cc1CNC(=O)[C@H](CCc1ccccc1)NC(=O)[C@@H](NC1CC3CCC1C3)CC(=O)N1CCCC(CCO2)C1 (stereo partly drawn) [Compound 712, (9S,12S)-12-(bicyclo[2.2.1]heptan-2-ylamino)-5^4-methyl-9-phenethyl-4-oxa-7,10-diaza-1(3,1)-piperidina-5(1,3)-benzenacyclotetradecaphane-8,11,14-trione]
< 100	< 100	< 100	< 100	< 100	< 100	Cc1ccc2cc1CNC(=O)[C@H](CCc1ccccc1)NC(=O)[C@@H](NC(=O)N1CC(O)C1)CC(=O)N1CCCC(CCO2)C1 (stereo partly drawn) [Compound 691, 3-hydroxy-N-((9S,12S)-5^4-methyl-8,11,14-trioxo-9-phenethyl-4-oxa-7,10-diaza-1(3,1)-piperidina-5(1,3)-benzenacyclotetradecaphane-12-yl)azetidine-1-carboxamide]
< 100	< 100	< 100	< 100	< 100	< 100	Cc1ccc2cc1CNC(=O)[C@H](CCc1ccccc1)NC(=O)[C@@H](NC(=O)CCN1CCC3(CCOC3)C1)CC(=O)N1CCCC(CCO2)C1 (stereo partly drawn) [Compound 640, N-((9S,12S)-5^4-methyl-8,11,14-trioxo-9-phenethyl-4-oxa-7,10-diaza-1(3,1)-piperidina-5(1,3)-benzenacyclotetradecaphane-12-yl)-3-(2-oxa-7-azaspiro[4.4]nonan-7-yl)propanamide]
< 100	< 100	< 100	< 100	< 100	< 100	CCN1CCC(F)(C(=O)N[C@H]2CC(=O)N3CCCC(CCOc4ccc(C)c(c4)CNC(=O)[C@H](CCc4ccccc4)NC2=O)C3)CC1 (stereo partly drawn) [Compound 592, 1-ethyl-4-fluoro-N-((9S,12S)-5^4-methyl-8,11,14-trioxo-9-phenethyl-4-oxa-7,10-diaza-1(3,1)-piperidina-5(1,3)-benzenacyclotetradecaphane-12-yl)piperidine-4-carboxamide]
< 100	< 100	< 100	100 to 500	100 to 500	< 100	Cc1ccc2cc1CNC(=O)[C@H](CCc1ccccc1)NC(=O)[C@@H](NC(=O)C1CC3(C1)CN(C)C3)CC(=O)N1CCCC(CCO2)C1 (stereo partly drawn) [Compound 714, 2-methyl-N-((9S,12S)-5^4-methyl-8,11,14-trioxo-9-phenethyl-4-oxa-7,10-diaza-1(3,1)-piperidina-5(1,3)-benzenacyclotetradecaphane-12-yl)-2-azaspiro[3.3]heptane-6-carboxamide]
< 100	< 100	< 100	< 100	< 100	< 100	COc1cccc(CCOCCC(=O)N[C@H]2CC(=O)N3CCCC(CCOc4ccc(C)c(c4)CNC(=O)[C@H](CCc4ccccc4)NC2=O)C3)c1 (stereo partly drawn) [Compound 581, 3-(3-methoxyphenethoxy)-N-((9S,12S)-5^4-methyl-8,11,14-trioxo-9-phenethyl-4-oxa-7,10-diaza-1(3,1)-piperidina-5(1,3)-benzenacyclotetradecaphane-12-yl)propanamide]
< 100	< 100	< 100	< 100	< 100	< 100	Cc1ccc2cc1CNC(=O)[C@H](CCc1ccccc1)NC(=O)[C@@H](NC(=O)CCNCCC1CCC1)CC(=O)N1CCCC(CCO2)C1 (stereo partly drawn) [Compound 693, 3-((2-cyclobutylethyl)amino)-N-((9S,12S)-5^4-methyl-8,11,14-trioxo-9-phenethyl-4-oxa-7,10-diaza-1(3,1)-piperidina-5(1,3)-benzenacyclotetradecaphane-12-yl)propanamide]
< 100	< 100	< 100	< 100	< 100	< 100	CC(=O)N1CC(CC(=O)N[C@H]2CC(=O)N3CCCC(CCOc4ccc(C)c(c4)CNC(=O)[C@H](CCc4ccccc4)NC2=O)C3)C1 (stereo partly drawn) [Compound 697, 2-(1-acetylazetidin-3-yl)-N-((9S,12S)-5^4-methyl-8,11,14-trioxo-9-phenethyl-4-oxa-7,10-diaza-1(3,1)-piperidina-5(1,3)-benzenacyclotetradecaphane-12-yl)acetamide]

Compound	IC50 [1] [nM]	IC50 [2] [nM]	IC50 [3] [nM]	IC50 [4] [nM]	IC50 [5] [nM]	IC50 [6] [nM]
Cc1ccc2cc1CNC(=O)[C@H](CCc1ccccc1)NC(=O)[C@@H](NC(=O)C1CC3CCC(C1)N3C(=O)OC(C)(C)C)CC(=O)N1CCCC(CCO2)C1 (stereo partly drawn) [Compound 605, tert-butyl 3-(((9S,12S)-5^4-methyl-8,11,14-trioxo-9-phenethyl-4-oxa-7,10-diaza-1(3,1)-piperidina-5(1,3)-benzenacyclotetradecaphane-12-yl)carbamoyl)-8-azabicyclo[3.2.1]octane-8-carboxylate]	< 100	< 100	< 100	100 to 500	< 100	< 100
